Measured values from ChEMBL document CHEMBL1201862, “PubChem BioAssay data set” (2004).
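Each compound was tested at five concentrations against cells in 96-well plates for 48 hours. GI50 = concentration required for 50% inhibition of growth.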 Active and inactive are the calls of the source. Cut-off read from the data, not from the text of the source: active = GI50 up to about 1.1 µM and inactive = higher.

Assays:
Experiment in all cases: NCI anticancer screen, dose series, 48 h
[1] = test system: EKVX
[2] = test system: NCI-H522
[3] = test system: IGROV-1
[4] = test system: UACC-257
[5] = test system: UACC-62
[6] = test system: M14
[7] = test system: SK-MEL-2
[8] = test system: OVCAR-4
[9] = test system: HCT-15
[10] = test system: CAKI-1
[11] = test system: SF-268
[12] = test system: SNB-75
[13] = test system: HOP-92
[14] = test system: SNB-19
[15] = test system: SF-539
[16] = test system: LOX IMVI
[17] = test system: HT-29
[18] = test system: CCRF-CEM
[19] = test system: RPMI-8226

For C1CSCCSCSCCS1, the GI50 [1] was > 100 µM (inactive), the GI50 [2] was > 100 µM (inactive) and the GI50 [3] was > 100 µM (inactive). The GI50 [4] was > 100 µM (inactive), the GI50 [5] was > 100 µM (inactive) and the GI50 [6] was > 100 µM (inactive). For the same compound, the GI50 [7] was > 100 µM (inactive), the GI50 [8] was > 100 µM (inactive) and the GI50 [9] was greater than 100 µM. For the same compound, the GI50 [10] was > 100 µM (inactive), the GI50 [11] was > 100 µM (inactive) and the GI50 [12] was 48.3 µM (inactive). For the same compound, the GI50 [13] was > 100 µM (inactive), the GI50 [14] was > 100 µM (inactive) and the GI50 [15] was > 100 µM (inactive). The GI50 [16] was > 100 µM (inactive) and the GI50 [17] was > 100 µM (inactive).

With C#Cc1cccc(N2C(=O)c3c(c(-c4ccccc4)c(-c4ccc(Cc5ccc(-c6c(-c7ccccc7)c7c(c(-c8ccccc8)c6-c6ccccc6)C(=O)N(c6cccc(C#C)c6)C7=O)cc5)cc4)c(-c4ccccc4)c3-c3ccccc3)C2=O)c1 the GI50 [1] was 51.2 µM (inactive), the GI50 [2] was > 100 µM (inactive) and the GI50 [3] was 12.6 µM (inactive). For the same compound, the GI50 [4] was 47.3 µM (inactive), the GI50 [5] was 5.6 µM (inactive) and the GI50 [6] was 16.9 µM (inactive). The GI50 [7] was 57.9 µM (inactive), the GI50 [8] was > 100 µM (inactive) and the GI50 [9] was 7.85 µM. For the same compound, the GI50 [11] was 15 µM (inactive), the GI50 [12] was 16.3 µM (inactive) and the GI50 [13] was 2.79 µM (inactive). For the same compound, the GI50 [18] was 26.6 µM (inactive), the GI50 [19] was 24.9 µM (inactive) and the GI50 [14] was 40 µM (inactive). The GI50 [15] was 21.2 µM (inactive) and the GI50 [17] was 51.4 µM (inactive).

For CC1CC[P+](c2ccccc2)(c2ccccc2)c2c1ccc1ccccc21 (centres undefined), the GI50 [2] was 0.946 µM (active), the GI50 [4] was 0.385 µM (active) and the GI50 [5] was 2.51 µM (inactive). For the same compound, the GI50 [6] was 3.53 µM (inactive), the GI50 [7] was 1.63 µM (inactive) and the GI50 [8] was 6.76 µM (inactive). For the same compound, the GI50 [9] was 31.9 µM, the GI50 [10] was 6.75 µM (inactive) and the GI50 [11] was 4.35 µM (inactive). For the same compound, the GI50 [12] was 2.37 µM (inactive), the GI50 [13] was 1.45 µM (inactive) and the GI50 [18] was 3.78 µM (inactive). The GI50 [14] was 2.44 µM (inactive), the GI50 [15] was 5.26 µM (inactive) and the GI50 [16] was 2.33 µM (inactive). The GI50 [17] was 2.28 µM (inactive).

With COc1ccc(-c2nc3ccc([N+](=O)[O-])cc3c(=O)[nH]2)cc1 the GI50 [1] was 66.1 µM (inactive), the GI50 [2] was 26.9 µM (inactive) and the GI50 [3] was 25.1 µM (inactive). For the same compound, the GI50 [4] was > 96.2 µM (inactive), the GI50 [5] was 37.7 µM (inactive) and the GI50 [7] was 30.3 µM (inactive). For the same compound, the GI50 [8] was 12.9 µM (inactive), the GI50 [9] was greater than 100 µM and the GI50 [10] was 28.8 µM (inactive). For the same compound, the GI50 [11] was 20.4 µM (inactive), the GI50 [12] was 12.7 µM (inactive) and the GI50 [13] was 22 µM (inactive). For the same compound, the GI50 [18] was > 100 µM (inactive), the GI50 [19] was > 61.4 µM (inactive) and the GI50 [14] was 20.4 µM (inactive). For the same compound, the GI50 [15] was 14.5 µM (inactive), the GI50 [16] was 30.5 µM (inactive) and the GI50 [17] was > 100 µM (inactive).

N#C[C@H](OC1OC(COC2OC(CO)C(O)C(O)C2O)C(O)C(O)C1O)c1ccccc1 (some centres undefined) was tested, and the GI50 [1] was > 250 µM (inactive), the GI50 [2] was > 200 µM (inactive) and the GI50 [3] was > 250 µM (inactive). The GI50 [4] was 234 µM (inactive), the GI50 [5] was 247 µM (inactive) and the GI50 [7] was > 250 µM (inactive). For the same compound, the GI50 [8] was > 250 µM (inactive), the GI50 [9] was greater than 250 µM and the GI50 [10] was > 250 µM (inactive). For the same compound, the GI50 [11] was > 250 µM (inactive), the GI50 [12] was > 250 µM (inactive) and the GI50 [13] was 2.5 µM (inactive). The GI50 [18] was > 250 µM (inactive), the GI50 [19] was > 250 µM (inactive) and the GI50 [14] was > 250 µM (inactive). The GI50 [15] was > 214 µM (inactive), the GI50 [16] was > 195 µM (inactive) and the GI50 [17] was > 250 µM (inactive).

With O=C1CCC23CC(C=CC=C12)n1c(=O)n(-c2ccccc2)c(=O)n13 (centres undefined) the GI50 [1] was > 100 µM (inactive), the GI50 [2] was > 100 µM (inactive) and the GI50 [3] was > 100 µM (inactive). For the same compound, the GI50 [4] was > 100 µM (inactive), the GI50 [5] was > 100 µM (inactive) and the GI50 [7] was > 100 µM (inactive). For the same compound, the GI50 [8] was > 100 µM (inactive), the GI50 [9] was greater than 78.7 µM and the GI50 [10] was > 50.6 µM (inactive). The GI50 [11] was > 73.6 µM (inactive), the GI50 [12] was > 100 µM (inactive) and the GI50 [13] was > 100 µM (inactive). The GI50 [18] was 42.4 µM (inactive), the GI50 [19] was > 100 µM (inactive) and the GI50 [14] was > 100 µM (inactive). The GI50 [15] was > 100 µM (inactive), the GI50 [16] was > 72.1 µM (inactive) and the GI50 [17] was > 88.9 µM (inactive).
